# Reference: US8530493B2, “Indolopyridines as Eg5 kinesin modulators” (4SC AG, priority 2006, dated 2013)
# System: RKO p21 uninduced (proliferating) colon adenocarcinoma cells
# Test: Alamar Blue cell viability assay, RKO p21 uninduced (proliferating)
# Assay type: cell-based
# Conditions: Homo sapiens, Table B3, anti-proliferative/cytotoxic activity, 72 hours, read-out: −log EC50 RKO p21 uninduced (proliferating) (converted)
# Description: The anti-proliferative/cytotoxic activity of the compounds described herein can be tested on subclones of RKO human colon adenocarcinoma cells (Schmidt et al., Oncogene 19, 2423-2429; 2000) using the Alamar Blue cell viability assay (described in O'Brien et al. Eur J Biochem 267, 5421-5426, 2000). The compounds are dissolved as 10 mM solutions in DMSO and subsequently diluted in semi-logarithmic steps. DMSO dilutions are further diluted 1:100 into Dulbecco's modified Eagle's medium (DMEM) containing 10% fetal calf serum to a final concentration twice as much as the final concentration in the test. RKO subclones are seeded into 96 well flat bottom plates at a density of 4000 cells per well in a volume of 50 μl per well. 24 hours after seeding the 50 μl each of the compound dilutions in DMEM medium are added into each well of the 96 well plate. Each compound dilution is tested as triplicates. Wells containing untreated control cells are filled with 50 μl DMEM medium containing 1% DMSO. The cells are then incubated with the substances for 72 hours at 37° C. in a humidified atmosphere containing 5% carbon dioxide. To determine the viability of the cells, 10 μl of an Alamar Blue solution (Biosource) are added and the fluorescence is measured at an extinction of 544 nm and an emission of 590 nm. For the calculation of the cell viability the emission value from untreated cells is set as 100% viability and the emission rates of treated cells are set in relation to the values of untreated cells. Viabilities are expressed as % values. The Graphpad Prism program is used for the calculation of EC50 values for anti-proliferative/cytotoxic activity out of the obtained dose-response curves.
# To determine the cell cycle specific mode of action, subclones of RKO colon adenocarcinoma cells (RKOp21 or RKOp27 as described by Schmidt et al. in Oncogene 19, 2423-2429; 2000) are seeded into 96 well flat bottom plates at a density of 16000 cells per well in a volume of 50 μl per well in DMEM growth medium with 10% FCS containing 10 μM Ponasterone A. 24 hours after seeding the 50 μl each of the compound dilutions in DMEM medium are added into each well of the 96-well plate. Each compound dilution is tested as triplicates. Wells containing untreated control cells are filled with 50 μl DMEM medium containing 1% DMSO. The cells are then incubated with the substances for 72 hours at 37° C. in a humidified atmosphere containing 5% carbon dioxide. To determine the viability of the cells, 10 μl of an Alamar Blue solution (Biosource) are added and the fluorescence is measured at an extinction of 544 nm and an emission of 590 nm. For the calculation of the cell viability the emission value from untreated cells is set as 100% viability and the emission rates of treated cells are set in relation to the values of untreated cells. Viabilities are expressed as % values. The Graphpad Prism program (GraphPad Software, Inc) is used for the calculation of EC50 values out of the obtained dose-response curves. Viability is compared of proliferating cells grown in the absence of the inducer Ponasterone A, versus viability of cells arrested by the expression of ectopic p27Kip1 induced by Ponasterone A.
# Representative values for anti-proliferation/cytotoxicity [measured as −log EC50 (mol/l)] determined in the aforementioned assays follow from the following tables B1, B2 and B3, in which the numbers of the compounds correspond to the numbers of the examples.
row,Structure (SMILES),EC50 [nM]
1,"CN(C)CCCN1C(=O)N2[C@H](c3cccc(O)c3)c3[nH]c4cc(F)c(Cl)cc4c3C[C@@]2(C)C1=O (racemic) [Example 335, (3aSR,10RS)-6-Chloro-2-(3-dimethylamino-propyl)-7-fluoro-10-(3-hydroxy-phenyl)-3a-methyl-3a,4,9,10-tetrahydro-2,9,10a-triaza-cyclopenta[b]fluorene-1,3-dione]",39.8 to 251
2,"CCOc1ccc2[nH]c3c(c2c1)C[C@@]1(C)C(=O)N(CCNC2CC2)C(=O)N1[C@@H]3c1cccc(O)c1 (racemic) [Example 161, (3aSR,10RS)-2-(2-Cyclopropylamino-ethyl)-6-ethoxy-10-(3-hydroxy-phenyl)-3a-methyl-3a,4,9,10-tetrahydro-2,9,10a-triaza-cyclopenta[b]fluorene-1,3-dione]",39.8 to 251
3,"C=CCN(C)CCCN1C(=O)N2[C@H](c3cccc(O)c3)c3[nH]c4cc(F)c(Cl)cc4c3C[C@@]2(C)C1=O (racemic) [Example 472, (3aSR,10RS)-2-[3-(Allyl-methyl-amino)-propyl]-6-chloro-7-fluoro-10-(3-hydroyx-phenyl)-3a-methyl-3a,4,9,10-tetrahydro-2,9,10a-triaza-cyclopenta[b]fluorene-1,3-dione]",39.8 to 251
4,"CCNCCCN1C(=O)N2[C@H](c3cccc(O)c3)c3[nH]c4cc(F)c(Cl)cc4c3C[C@@]2(C)C1=O (racemic) [Example 457, (3aSR,10RS)-6-Chloro-2-(3-ethylamino-propyl)-7-fluoro-10-(3-hydroxy-phenyl)-3a-methyl-3a,4,9,10-tetrahydro-2,9,10a-triaza-cyclopenta[b]fluorene-1,3-dione]",39.8 to 251
5,"CCNCCN1C(=O)N2[C@H](c3cccc(O)c3)c3[nH]c4ccc(Br)cc4c3C[C@@]2(C)C1=O (racemic) [Example 393, (3aSR,10RS)-6-Bromo-2-(2-ethylamino-ethyl)-10-(3-hydroxy-phenyl)-3a-methyl-3a,4,9,10-tetrahydro-2,9,10a-triaza-cyclopenta[b]fluorene-1,3-dione]",≤ 39.8
6,"CC(C)CNCCN1C(=O)N2[C@H](c3cccc(O)c3)c3[nH]c4ccc(Br)cc4c3C[C@@]2(C)C1=O (racemic) [Example 391, (3aSR,10RS)-6-Bromo-10-(3-hydroxy-phenyl)-2-(2-isobutylamino-ethyl)-3a-methyl-3a,4,9,10-tetrahydro-2,9,10a-triaza-cyclopenta[b]fluorene-1,3-dione]",≤ 39.8
7,"C[C@@]12Cc3c([nH]c4ccc(Br)cc34)[C@@H](c3cccc(O)c3)N1C(=O)N(CCCN1CCCC1)C2=O (racemic) [Example 219, (3aSR,10RS)-6-Bromo-10-(3-hydroxy-phenyl)-3a-methyl-2-(3-pyrrolidin-1-yl-propyl)-3a,4,9,10-tetrahydro-2,9,10a-triaza-cyclopenta[b]fluorene-1,3-dione]",≤ 39.8
8,"COc1cc2c3c([nH]c2cc1F)[C@@H](c1cccc(O)c1)N1C(=O)N(CCCNC(C)(C)C)C(=O)[C@]1(C)C3 (racemic) [Example 308, (3aSR,10RS)-2-(3-tert-Butylamino-propyl)-7-fluoro-10-(3-hydroxy-phenyl)-6-methoxy-3a-methyl-3a,4,9,10-tetrahydro-2,9,10a-triaza-cyclopenta[b]fluorene-1,3-dione]",39.8 to 251
9,"CNCCCN1C(=O)N2[C@H](c3cccc(O)c3)c3[nH]c4cc(F)c(Cl)cc4c3C[C@@]2(C)C1=O (racemic) [Example 456, (3aSR,10RS)-6-Chloro-7-fluoro-10-(3-hydroxy-phenyl)-3a-methyl-2-(3-methylamino-propyl)-3a,4,9,10-tetrahydro-2,9,10a-triaza-cyclopenta[b]fluorene-1,3-dione]",39.8 to 251
10,"CCN(CCO)CCCN1C(=O)N2[C@H](c3cccc(O)c3)c3[nH]c4cc(F)c(OC)cc4c3C[C@@]2(C)C1=O (racemic) [Example 315, (3aSR,10RS)-2-{3-[Ethyl-(2-hydroxy-ethyl)-amino]-propyl}-7-fluoro-10-(3-hydroxy-phenyl)-6-methoxy-3a-methyl-3a,4,9,10-tetrahydro-2,9,10a-triaza-cyclopenta[b]fluorene-1,3-dione]",39.8 to 251
11,"CCOc1ccc2[nH]c3c(c2c1)C[C@@]1(C)C(=O)N(CCCN2CCCC2)C(=O)N1[C@@H]3c1cccc(O)c1 (racemic) [Example 221, (3aSR,10RS)-6-Ethoxy-10-(3-hydroxy-phenyl)-3a-methyl-2-(3-pyrrolidin-1-yl-propyl)-3a,4,9,10-tetrahydro-2,9,10a-triaza-cyclopenta[b]fluorene-1,3-dione]",39.8 to 251
12,"CNCCN1C(=O)N2[C@H](c3cccc(O)c3)c3[nH]c4ccc(Br)cc4c3C[C@@]2(C)C1=O (racemic) [Example 394, (3aSR,10RS)-6-Bromo-10-(3-hydroxy-phenyl)-3a-methyl-2-(2-methylamino-ethyl)-3a,4,9,10-tetrahydro-2,9,10a-triaza-cyclopenta[b]fluorene-1,3-dione]",≤ 39.8
13,"CC(C)(C)NCCCN1C(=O)N2[C@H](c3cccc(O)c3)c3[nH]c4ccc(OC(F)F)cc4c3C[C@@]2(C)C1=O (racemic) [Example 182, (3aSR,10RS)-2-(3-tert-Butylamino-propyl)-6-(1,1-difluoro-methoxy)-10-(3-hydroxy-phenyl)-3a-methyl-3a,4,9,10-tetrahydro-2,9,10a-triaza-cyclopenta[b]fluorene-1,3-dione]",≤ 39.8
14,"CNCCN1C(=O)N2[C@H](c3cccc(O)c3)c3[nH]c4cc(F)c(OC)cc4c3C[C@@]2(C)C1=O (racemic) [Example 248, (3aSR,10RS)-7-Fluoro-10-(3-hydroxy-phenyl)-6-methoxy-3a-methyl-2-(2-methylamino-ethyl)-3a,4,9,10-tetrahydro-2,9,10a-triaza-cyclopenta[b]fluorene-1,3-dione]",39.8 to 251
15,"CCNCCCN1C(=O)N2[C@H](c3cccc(O)c3)c3[nH]c4cc(F)c(OC)cc4c3C[C@@]2(C)C1=O (racemic) [Example 330, (3aSR,10RS)-2-(3-Ethylamino-propyl)-7-fluoro-10-(3-hydroxy-phenyl)-6-methoxy-3a-methyl-3a,4,9,10-tetrahydro-2,9,10a-triaza-cyclopenta[b]fluorene-1,3-dione]",39.8 to 251
16,"CC(C)NCCN1C(=O)N2[C@H](c3cccc(O)c3)c3[nH]c4ccc(Br)cc4c3C[C@@]2(C)C1=O (racemic) [Example 233, (3aSR,10RS)-6-Bromo-10-(3-hydroxy-phenyl)-2-(2-ispropylamino-ethyl)-3a-methyl-3a,4,9,10-tetrahydro-2,9,10a-triaza-cyclopenta[b]fluorene-1,3-dione]",≤ 39.8
17,"C[C@@]12Cc3c([nH]c4ccc(OC(F)F)cc34)[C@@H](c3cccc(O)c3)N1C(=O)N(CCCN1CCCCCC1)C2=O (racemic) [Example 243, (3aSR,10RS)-2-(3-Azepan-1-yl-propyl)-6-(1,1-difluoro-methoxy)-10-(3-hydroxy-phenyl)-3a-methyl-3a,4,9,10-tetrahydro-2,9,10a-triaza-cyclopenta[b]fluorene-1,3-dione]",≤ 39.8
18,"CCNCCCN1C(=O)N2[C@H](c3cccc(O)c3)c3[nH]c4ccc(OC(F)F)cc4c3C[C@@]2(C)C1=O (racemic) [Example 204, (3aSR,10RS)-6-(1,1-Difluoro-methoxy)-2-(3-ethylamino-propyl)-10-(3-hydroxy-phenyl)-3a-methyl-3a,4,9,10-tetrahydro-2,9,10a-triaza-cyclopenta[b]fluorene-1,3-dione]",39.8 to 251
19,"C[C@@]12Cc3c([nH]c4ccc(Br)cc34)[C@@H](c3cccc(O)c3)N1C(=O)N(CCCN1CC=CCC1)C2=O (racemic) [Example 232, (3aSR,10RS)-6-Bromo-2-[3-(3,6-dihydro-2H-pyridin-1-yl)-propyl]-10-(3-hydroxy-phenyl)-3a-methyl-3a,4,9,10-tetrahydro-2,9,10a-triaza-cyclopenta[b]fluorene-1,3-dione]",≤ 39.8
